The numbers were not newly measured in patent US10076471B2, “Antimicrobial denture” (University of Dammam, priority 2016, dated 2018), which cites them from elsewhere.

Values after ≈ are worked out from the molar mass of the structure shown.

In the series the test system is Candida. The note with it: against Candida.

Turning to `COC1=CC(=O)c2ccccc2C1=O` [Lawsone methyl ether, 2-methoxy-1,4-napthoquinone], the minimal fungicidal concentration is 1.25 µg/mL (≈ 6.64 µM).
